Consider eight compounds from patent US20020045764A1, “Tubulin binding compounds (COBRA)” (Parker Hughes Institute, priority 1998, published 2002).

Structures are written as SMILES.

One assay deals with T1, Bovine brain tubulin (Bos taurus, UniProt P81947+Q6B856).
T1 construct: purchased Sigma, St. Louis, Mo; host or cells: bovine brain (tissue-purified)
Put plainly: Tubulin turbidity assay (GTP-induced tubulin polymerization). The class given is biochemical. To be noted: 1 mg/ml tubulin, 1 mM GTP, 37° C., OD 350 nm. The protocol: Bovine brain tubulin (Sigma, St. Louis, Mo.) was used in standard turbidity assays to test the effects of compounds COBRA-1 and COBRA-2 as well as control compounds on GTP-induced tubulin polymerization. Compounds (in 1% DMSO) were added to tubulin (1 mg/ml, 0.1M MES, 1 mM EGTA, 0.5 mM MgCl2, 0.1 mM EDTA, 2.5M glycerol, 1 μg/ml leupeptin, 1 μg/ml aprotinin, pH 6.5) followed by stimulation of polymerization with 1 mM GTP at 2 minutes and 1 mM taxol at 30 minutes. Optical density was measured using a Becton Dickinson UV spectrophotometer (350 nm) using a thermostated cuvette holder to keep the reaction at 37° C. Readings obtained from the spectro-photometer were standardized by subtracting the background absorbance of the compound in water from the sample reading following drug addition.
To test the latitude of the structure at the opposite end of the molecule from the long chain (head region), three new COBRA compounds were synthesized according to the schemes shown below: COBRA-3, COBRA-4, and COBRA-5. Each of these compounds was then tested for tubulin depolymerization activity, using the tubidity assay described in the Examples above.
Each of these compounds was assayed for effects on GTP-dependent tubulin polymerization, using the methods described above.

For assay [1], the system named is BT-20 breast cancer cells. Put plainly: Cytotoxicity by confocal microscopy (tubulin immunofluorescence). It is filed as cell-based, human. Here is the method: (§1) Cells were incubated at 37° C. for the indicated time periods with the title compounds. At the end of the incubation, cells were washed twice with PBS and fixed in 2% paraformaldehyde. The cells were permeabilized and non-specific binding sites were blocked with 2.5% BSA in PBS containing 0.1% Triton X-100 for 30 minutes. Tubulin expression was examined by immunofluorescence using a monoclonal antibody against α-tubulin (Sigma Chemical Co, St. Louis, Mo.) at a dilution of 1:1000 and an anti-mouse IgG conjugated to FITC. Cells were washed in PBS and counterstained with toto-3 (Molecular Probes Inc., Eugene, Oreg.) for 10 minutes at a dilution of 1:1000. Cells were washed again with PBS and the coverslips were mounted with Vectashield (Vector Labs, Burlingame, Calif.) and viewed with a confocal microscope (Bio-Rad MRC 1024) mounted in a Nikon Labhophot upright microscope. Digital images were saved on a Jaz disk and processed with Adobe Photoshop software (Adobe Systems, Mountain View, Calif.).
(§2) The ultrastructural changes in human breast and glioblastoma cancer cells treated with COBRA-1 or COBRA-2 were examined by confocal microscopy and by transmission electron microscopy, using methods previously reported^19.

A further assay concerns U373 brain tumor cells. The description is as above. It is filed as cell-based, human. Here is the method:
as §1, §2

The subject of another assay is MDA-MB-231. Put plainly: MTT assay. The class given is cell-based, human. To be noted: Homo sapiens, 24-36 hours. Here is the method: (§3) The antiproliferative activity of […] and the control mono-THF containing compounds 8.2, 8.3, and 8.4 was examined against a panel of 5 different human tumor cell lines using standard MTT (3-[4,5-dimethylthiazol-2-yl]-2,5-diphenyl tetrazolium bromide) assays^18 (Boehringer Mannheim Corp., Indianapolis, Ind.).
(§4) Briefly, exponentially growing brain tumor cells were seeded into a 96-well plate at a density of 2.5×10^4 cells/well and incubated for 36 hours at 37° C. prior to drug exposure. On the day of treatment, culture medium was carefully aspirated from the wells and replaced with fresh medium containing the test or control compounds at concentrations ranging from 0.1 to 250 μM. Triplicate wells were used for each treatment. The cells were incubated with the various compounds for 24-36 hours at 37° C. in a humidified 5% CO2 atmosphere. To each well, 10 μl of MTT (0.5 mg/ml final concentration) was added and the plates were incubated at 37° C. for 4 hours to allow MTT to form formazan crystals by reacting with metabolically active cells . The formazan crystals were solubilized overnight at 37° C. in a solution containing 10% SDS in 0.01 M HCl. The absorbence of each well was measured in a microplate reader (Labsystems) at 540 nm and a reference wavelength of 690 nm. To translate the OD 540 values into the number of live cells in each well, the OD540 values were compared to those on standard OD540-versus-cell number curves generated for each cell line. The percent survival was calculated using the formula: % survival=Live cell number[test]×100/Live cell number[control].
(§5) IC50 values were calculated by non-linear regression analysis using an Graphpad Prism software version 2.0 (Graphpad Software, Inc., San Diego, Calif.).
(§6) The following human cancer cell lines were used in the present study: BT-20, breast cancer; MDA-MB-231, breast cancer; PC3, prostate cancer; U87 and U373, glioblastoma; NALM-6, B-lineage acute lymphoblastic leukemia. These cell lines were obtained from American Type Culture Collection (Manassas, Va.) and maintained as continuous cell lines in Dulbecco's modified Eagles's medium supplemented with 10% fetal bovine serum and antibiotics.
A general note: Tetrazolium dyes change colour on reduction, which living cells bring about.

The subject of a further assay is NALM-6. Put plainly: MTT assay. It is filed as cell-based, human. To be noted: Homo sapiens, 24-36 hours. Here is the method: as §3, §4, §5, §6
In a further assay the test system is PC-3. The assay can be described thus: MTT assay. To be noted: Homo sapiens, 24-36 hours. It is filed as cell-based, human. The protocol: as §3, §4, §5, §6
The subject of a further assay is U87. Put plainly: MTT assay. The class given is cell-based, human. The settings on record: Homo sapiens, U-87 MG, 24-36 hours. Here is the method:
as §3, §4, §5, §6

The test system of a further assay is SQ20B. Put plainly: MTT assay. The class given is cell-based, human. To be noted: Homo sapiens, 24-36 hours. The protocol: as §3, §4, §5
In assay [2] the test system is zebrafish (ZF) (Danio rerio) embryos. Put plainly: Zebrafish embryo model, cell division and development. The class given is in vivo. Here is the method:
ZF eggs were removed from their chorions by mild digestion in 1% Trypsin-EDTA (Sigma) for 10 minutes at 28.5° C. (Standard temperature—ST), washed three times in “egg water”^15-16 and twice in “embryonic medium” (EM)^15-16. The dechorionated two-cell stage cleaving eggs/embryos were transferred to the 24-well plastic cell culture plates (Costar, City, State) filled with EM or Hank's Balanced Salt Saline (HBSS, Gibco, City, State). Dechorionated embryos (10-12 per well) were exposed to the drugs at a constant ST for 0.5-24 hours. The final volume of the media in each well was 500 μL. All reference as well as test compounds were used at concentrations ranging from 10 μM to 4 mM. The title compounds were dissolved in DMSO and then diluted serially with the incubation medium. The final concentration of DMSO in the wells was 1.2% (with the exception of the etoposide treatment where it was 3%). The sham-treated control embryos were incubated in EM or HBSS in the presence of 1.2% (or 3%) DMSO.
Observations of cell division and development of the ZF embryos were carried out using a SMZ-10A stereo microscope (Nicon, City, State), once every 30 minutes within the first 3 hours of incubation and at 6, 12 and 24 hours, as well. […] The stereo microscope was fitted with a specially designed transparent heating tray in order to keep embryos at ST during observations. Pictures of the embryos were taken with a H-III Photomicrographic System (Nicon) using Ektachrome 64X film (Kodak, Rochester, N.Y.).

T1 sequence (P81947 whole entry): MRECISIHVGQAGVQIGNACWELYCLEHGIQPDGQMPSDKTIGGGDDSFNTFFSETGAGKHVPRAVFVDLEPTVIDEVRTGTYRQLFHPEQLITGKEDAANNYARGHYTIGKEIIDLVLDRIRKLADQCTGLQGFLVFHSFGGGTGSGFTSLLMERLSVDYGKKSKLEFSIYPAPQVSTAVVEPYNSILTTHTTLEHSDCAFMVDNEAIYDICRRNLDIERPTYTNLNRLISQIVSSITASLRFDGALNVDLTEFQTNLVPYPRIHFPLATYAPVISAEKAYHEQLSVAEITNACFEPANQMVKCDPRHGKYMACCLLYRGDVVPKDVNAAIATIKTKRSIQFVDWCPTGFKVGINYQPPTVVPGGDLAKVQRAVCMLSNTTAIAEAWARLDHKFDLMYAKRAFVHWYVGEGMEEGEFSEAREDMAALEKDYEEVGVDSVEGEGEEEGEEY
T1 sequence (Q6B856 whole entry): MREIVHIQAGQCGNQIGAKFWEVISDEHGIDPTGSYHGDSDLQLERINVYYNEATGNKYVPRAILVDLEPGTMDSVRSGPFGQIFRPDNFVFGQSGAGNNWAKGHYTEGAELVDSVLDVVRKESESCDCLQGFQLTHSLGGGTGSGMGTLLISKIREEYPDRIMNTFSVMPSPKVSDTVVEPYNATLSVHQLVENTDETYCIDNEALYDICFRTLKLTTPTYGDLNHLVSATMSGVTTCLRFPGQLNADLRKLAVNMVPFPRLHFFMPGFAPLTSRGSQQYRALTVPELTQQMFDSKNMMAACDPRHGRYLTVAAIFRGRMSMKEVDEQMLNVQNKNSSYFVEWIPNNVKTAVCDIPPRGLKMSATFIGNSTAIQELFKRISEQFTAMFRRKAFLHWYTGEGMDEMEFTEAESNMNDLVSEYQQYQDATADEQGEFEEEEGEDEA

As to `C=CCC[C@H](O)[C@H]1CC[C@H]([C@H](O)CCCCCCCCCCCC)O1` [COBRA-2], the “effect on GTP-dependent tubulin polymerization (turbidity)” value at Bovine brain tubulin was “caused partial depolymerization of tubulin and inhibited its polymerization in the presence of GTP”. Also, the “cell morphology / microtubules” value in [1] (BT-20, 100-200 μM) was “cell death with nuclear fragmentation and complete loss of microtubule formation”; in assay [1] (BT-20, 24 hours (FIG. 10B)) it was “the cells shrink and the microtubules become less organized”; in the assay on U373 brain tumor cells (U373, 100-200 μM), “cell death with nuclear fragmentation and complete loss of microtubule formation”; in the assay with U373 brain tumor cells (U373, 24 hours (FIG. 10E)), “the cells shrink and the microtubules become less organized”.

As to `CCCCCCCCCCCC[C@@H](O)[C@H]1CC[C@H]([C@@H](O)CO)O1` [COBRA-4], the “effect on GTP-dependent tubulin polymerization (turbidity)” value at Bovine brain tubulin is “caused partial depolymerization of tubulin and completely inhibited its polymerization in the presence of GTP”.

On to `OC(CSOOc1ccccc1)C1CCC(COCc2ccccc2)O1` (centres unmarked) [Compound 8.2], for which the half-inhibitory concentration (IC50) with MDA-MB-231, with NALM-6, with PC-3, with U87 and in the assay with SQ20B was > 250 µM each time.

Take `C[C@@H](O)[C@H]1CC[C@H](CO)O1` [Compound 8.3]: the IC50 with MDA-MB-231, in the assay on NALM-6, with PC-3, in the assay with U87 and with SQ20B was > 250 µM each time.

As for `OCC(O)[C@H]1CC[C@H](CO)O1` (some centres unmarked) [Compound 8.4], the IC50 with MDA-MB-231, in the assay with NALM-6, in the assay with PC-3, in the assay on U87 and with SQ20B was > 250 µM each time.

As for `CN(Cc1cnc2nc(N)nc(N)c2n1)c1ccc(C(=O)N[C@@H](CCC(=O)O)C(=O)O)cc1` [methotrexate, reference compound], the effect on gastrulation entry in [2] (1-4 mM) is reported as “failed to gastrulate”. Also, the “effect on cell division during cleavage and blastula stages” value in [2] (by 4 hours of incubation) was “no visible effect”.

As for `CC(=O)O[C@H]1C(=O)[C@@]2(C)[C@H]([C@H](OC(=O)c3ccccc3)[C@]3(O)C[C@H](OC(=O)[C@H](O)[C@@H](NC(=O)c4ccccc4)c4ccccc4)C(C)=C1C3(C)C)[C@]1(OC(C)=O)CO[C@@H]1C[C@@H]2O` [paclitaxel, reference compound], the “effect on ZF embryos” value in [2] (400 μM in EM) was “developmental abnormalities after 90 minutes of exposure”.

In the case of `CC[C@]1(O)C[C@H]2CN(CCc3c([nH]c4ccccc34)[C@@](C(=O)OC)(c3cc4c(cc3OC)N(C=O)[C@H]3[C@@](O)(C(=O)OC)[C@H](OC(C)=O)[C@]5(CC)C=CCN6CC[C@]43[C@@H]65)C2)C1` [vincristine, reference compound], in assay [2] (100 μM in EM or HBSS), the “effect on ZF embryos” value was “rapid total cell division blockade, cell fusion and developmental arrest”; the “time until two-cell stage embryos stopped cleaving” value was ≤ 15 min.

A word on the IC50: it is the midpoint of a concentration-inhibition curve.
